Test results reported in US12486302B2, “Somatostatin receptor antagonist compounds and methods of using the same” (CDRD VENTURES INC., priority 2016, dated 2025).
*1 amine or outer side, *2 acyl side, *3 side chain or, on linkers, in order; H or OH if unused. Where a SMILES comes first, the peptide text is derived from it. Bridges are numbered along the chain shown (N, C = ends). Side-chain parts run from the residue outwards. [ ]: non-standard residue; d: D form. The star is where a group is joined. X1 = O=C([C@@H](Cc1ccc(NS(=O)(=O)c2ccccc2)cc1)N[*:1])[*:2]; dPhe(4-CH2NHCONH2) = NC(=O)NCc1ccc(C[C@@H](N)C(=O)O)cc1; X3 = O=C([C@@H](Cc1ccc(NCCN2CCOCC2)cc1)N[*:1])[*:2]; X2 = CCCCCNc1ccc(C[C@@H](N[*:1])C(=O)[*:2])cc1; dPhe(4-CH2NH2) = NCc1ccc(C[C@@H](N)C(=O)O)cc1; dPhe(4-NH2) = Nc1ccc(C[C@@H](N)C(=O)O)cc1; Phe(4-Cl) = N[C@@H](Cc1ccc(Cl)cc1)C(=O)O; dCit = NC(=O)NCCC[C@@H](N)C(=O)O; Nicotinoyl = O=C(c1cccnc1)*; CO = O=C([*:1])[*:2]; NHPh = c1ccc(N*)cc1

Tests used:
Format in all cases: cell-based
Settings in all cases: agonist challenge at EC80
SSTR4 = SSTR4 (Homo sapiens, UniProt P31391); test: PathHunter β-Arrestin assay, antagonist mode, SSTR4
Method: (§1) The PathHunter® β-Arrestin assay monitors the activation of a GPCR in a homogenous, non-imaging assay format using a technology developed by DiscoveRx called Enzyme Fragment Complementation (EFC) with β-galactosidase (β-Gal) as the functional reporter. […] EA is fused to β-Arrestin and […] is fused to the GPCR of interest. When the GPCR is activated and β-Arrestin is recruited to the receptor, ED and EA complementation occurs, restoring β-Gal activity which is measured using chemiluminescent PathHunter® Detection Reagents. For antagonist determination, cells were pre-incubated with the compounds followed by agonist challenge at the EC80 concentration. Data was normalized to the maximal and minimal response observed in the presence of EC80 ligand and vehicle. Compound activity was analyzed using CBIS data analysis suite ChemInnovation, CA). Percentage inhibition was calculated using the following formula: % Inhibition=100%×(1−(mean signal of test sample-mean signal of vehicle control)/(mean signal of EC80 control-mean signal of vehicle control)). Percentage inhibition was calculated at 10 concentrations in steps on a Log 3 scale ranging from […] to 5e-5 μM. The results were plotted for IC50 calculation.

SSTR5 = SSTR5 (Homo sapiens, UniProt P35346); test: PathHunter β-Arrestin assay, antagonist mode, SSTR5
Method: as §1

SSTR3 = SSTR3 (Homo sapiens, UniProt P32745); test: PathHunter β-Arrestin assay, antagonist mode, SSTR3
Method: as §1

[1] = target: somatostatin type 2 (SSTR2) receptors (Homo sapiens, UniProt P30874); test: PathHunter β-Arrestin assay, antagonist mode, SSTR2
Summary of the method: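 Cells co-expressing PK-tagged human receptor and EA-β-Arrestin were pre-incubated with compound, then challenged with agonist at EC80. β-Gal complementation read by chemiluminescence; % inhibition normalized to EC80 and vehicle controls at 10 concentrations (log 3 steps from 1 μM down to 5e-5 μM), fitted for IC50.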

SSTR1 = SSTR1 (Homo sapiens, UniProt P30872); test: PathHunter β-Arrestin assay, antagonist mode, SSTR1
Method: as §1

Chain of somatostatin type 2 (SSTR2) receptors (P30874 whole entry): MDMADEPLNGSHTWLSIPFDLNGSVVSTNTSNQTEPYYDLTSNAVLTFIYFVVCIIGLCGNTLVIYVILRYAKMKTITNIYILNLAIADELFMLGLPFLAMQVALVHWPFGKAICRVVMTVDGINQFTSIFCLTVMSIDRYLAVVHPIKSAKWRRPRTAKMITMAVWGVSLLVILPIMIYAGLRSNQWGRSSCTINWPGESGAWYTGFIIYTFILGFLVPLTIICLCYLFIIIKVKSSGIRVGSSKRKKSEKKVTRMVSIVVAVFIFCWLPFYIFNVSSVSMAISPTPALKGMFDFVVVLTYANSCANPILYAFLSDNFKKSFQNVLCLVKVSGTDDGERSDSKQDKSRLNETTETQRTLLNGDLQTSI
Chain of SSTR5 (P35346 whole entry): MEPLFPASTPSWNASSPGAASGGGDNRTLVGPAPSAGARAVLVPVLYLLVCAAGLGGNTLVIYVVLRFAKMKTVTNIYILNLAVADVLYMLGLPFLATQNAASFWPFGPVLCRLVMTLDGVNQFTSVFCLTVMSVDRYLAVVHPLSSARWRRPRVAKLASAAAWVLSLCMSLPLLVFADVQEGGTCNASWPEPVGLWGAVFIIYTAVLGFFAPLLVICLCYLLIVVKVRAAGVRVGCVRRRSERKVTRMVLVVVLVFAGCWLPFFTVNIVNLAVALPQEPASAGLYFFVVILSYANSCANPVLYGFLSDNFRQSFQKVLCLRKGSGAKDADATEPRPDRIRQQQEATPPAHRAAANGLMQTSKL
Chain of SSTR1 (P30872 whole entry): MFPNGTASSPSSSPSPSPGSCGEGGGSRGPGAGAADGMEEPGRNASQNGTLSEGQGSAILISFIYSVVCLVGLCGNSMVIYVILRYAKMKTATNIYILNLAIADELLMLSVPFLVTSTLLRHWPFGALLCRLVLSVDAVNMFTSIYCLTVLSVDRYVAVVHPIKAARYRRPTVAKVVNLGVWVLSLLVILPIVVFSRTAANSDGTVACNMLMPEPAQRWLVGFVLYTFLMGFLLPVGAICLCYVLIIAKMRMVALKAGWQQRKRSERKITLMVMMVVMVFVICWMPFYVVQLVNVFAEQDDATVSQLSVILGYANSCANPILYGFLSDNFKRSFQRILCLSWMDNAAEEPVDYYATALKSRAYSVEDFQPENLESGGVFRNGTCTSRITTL
Chain of SSTR3 (P32745 whole entry): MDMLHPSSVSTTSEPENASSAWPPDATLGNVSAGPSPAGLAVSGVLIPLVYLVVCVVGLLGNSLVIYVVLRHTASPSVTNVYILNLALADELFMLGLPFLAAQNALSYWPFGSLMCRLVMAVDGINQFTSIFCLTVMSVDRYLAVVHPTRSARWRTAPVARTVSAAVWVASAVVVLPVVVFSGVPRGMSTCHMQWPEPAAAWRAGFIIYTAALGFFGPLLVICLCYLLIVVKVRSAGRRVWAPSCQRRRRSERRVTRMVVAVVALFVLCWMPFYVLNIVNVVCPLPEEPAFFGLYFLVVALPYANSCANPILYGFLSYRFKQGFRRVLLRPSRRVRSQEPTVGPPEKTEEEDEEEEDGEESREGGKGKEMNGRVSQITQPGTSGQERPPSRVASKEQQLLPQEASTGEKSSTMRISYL
Chain of SSTR4 (P31391 whole entry, the tested form may be a part): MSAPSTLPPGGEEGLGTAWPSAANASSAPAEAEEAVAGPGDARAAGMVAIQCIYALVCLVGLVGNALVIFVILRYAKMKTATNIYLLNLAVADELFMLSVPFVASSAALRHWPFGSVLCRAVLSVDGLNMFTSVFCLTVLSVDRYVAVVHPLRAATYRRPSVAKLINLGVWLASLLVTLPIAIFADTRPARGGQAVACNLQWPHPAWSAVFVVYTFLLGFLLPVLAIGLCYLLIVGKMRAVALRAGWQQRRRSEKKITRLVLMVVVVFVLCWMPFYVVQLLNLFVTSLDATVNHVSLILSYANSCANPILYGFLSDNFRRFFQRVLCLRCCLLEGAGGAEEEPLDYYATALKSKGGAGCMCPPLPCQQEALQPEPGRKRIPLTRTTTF

| Structure (SMILES) | IC50 (SSTR4) [nM] | IC50 (SSTR5) [nM] | IC50 (SSTR3) [nM] | IC50 [1] [nM] | IC50 (SSTR1) [nM] |
| --- | --- | --- | --- | --- | --- |
| C[C@@H](O)[C@@H]1NC(=O)[C@H](CCCCN)NC(=O)[C@@H](Cc2ccc(NC(=O)Nc3ccccc3)cc2)NC(=O)[C@H](Cc2ccc(O)cc2)NC(=O)[C@H](NC(=O)[C@@H](N)Cc2ccc(Cl)cc2)CSSC[C@@H](C(=O)N[C@H](Cc2ccc(O)cc2)C(N)=O)NC1=O [Compound 15, H-Cpa-cyclo[D-Cys-Tyr-D-Phe(4-phenylureido)-Lys-Thr-Cys]-D-Tyr-NH2] (H-[Phe(4-Cl)][dC]Y[dPhe(4-NH2)]([CO-NHPh])KTC[dY]-NH2; disulfide 2-7) | > 1000 | > 1000 | > 1000 | 1 | > 1000 |
| C[C@@H](O)[C@@H]1NC(=O)[C@H](CCCCN)NC(=O)[C@@H](Cc2ccc(NC(=O)[C@@H]3CCCN3)cc2)NC(=O)[C@H](Cc2ccc(O)cc2)NC(=O)[C@H](NC(=O)[C@@H](N)Cc2ccc(Cl)cc2)CSSC[C@@H](C(=O)N[C@H](Cc2ccc(O)cc2)C(N)=O)NC1=O [Compound 10, H-Cpa-cyclo[DCys- Tyr-D-4-(Pro) Aph-Lys- Thr-Cys]- DTyr-NH2] (H-[Phe(4-Cl)][dC]Y[dPhe(4-NH2)](Pro)KTC[dY]-NH2; disulfide 2-7) |  |  | > 1000 | > 1000 |  |
| C[C@@H](O)[C@@H]1NC(=O)[C@H](CCCCN)NC(=O)[C@@H](CCCCNC(=O)c2cccnc2)NC(=O)[C@H](Cc2ccc(O)cc2)NC(=O)[C@H](NC(=O)[C@@H](N)Cc2ccc(Cl)cc2)CSSC[C@@H](C(=O)N[C@H](Cc2ccc(O)cc2)C(N)=O)NC1=O [Compound 3, H-Cpa-cyclo[DCys- Tyr-D-(N^ϵ- nicotinoyl)Lys-Lys- Thr-Cys]-DTyr-NH2] (H-[Phe(4-Cl)][dC]Y[dK](Nicotinoyl)KTC[dY]-NH2; disulfide 2-7) |  |  | > 1000 | 251 |  |
| C[C@@H](O)[C@@H]1NC(=O)[C@H](CCCCN)NC(=O)[C@@H](Cc2ccc(CNC(N)=O)cc2)NC(=O)[C@H](Cc2ccc(O)cc2)NC(=O)[C@H](NC(=O)[C@@H](N)Cc2ccc(Cl)cc2)CSSC[C@@H](C(=O)N[C@H](Cc2ccc(O)cc2)C(N)=O)NC1=O [Compound 7, H-Cpa-cyclo[DCys- Tyr-D-(4- ureidomethyl) Phe-Lys- Thr-Cys]-DTyr-NH2] (H-[Phe(4-Cl)][dC]Y[dPhe(4-CH2NHCONH2)]KTC[dY]-NH2; disulfide 2-7) | > 1000 | > 1000 | > 1000 | 31 | > 1000 |
| C[C@@H](O)[C@@H]1NC(=O)[C@H](CCCCN)NC(=O)[C@@H](Cc2ccc(NC(=O)[C@@H](N)CC(=O)O)cc2)NC(=O)[C@H](Cc2ccc(O)cc2)NC(=O)[C@H](NC(=O)[C@@H](N)Cc2ccc(Cl)cc2)CSSC[C@@H](C(=O)N[C@H](Cc2ccc(O)cc2)C(N)=O)NC1=O [Compound 18, H-Cpa-cyclo[DCys- Tyr-D-4-(Asp) Aph-Lys-Thr- Cys]-DTyr-NH2] (H-[Phe(4-Cl)][dC]Y[dPhe(4-NH2)](Asp)KTC[dY]-NH2; disulfide 2-7) |  |  | > 1000 | > 1000 |  |
| C[C@@H](O)[C@@H]1NC(=O)[C@H](CCCCN)NC(=O)[C@@H](Cc2ccc(NCCN3CCOCC3)cc2)NC(=O)[C@H](Cc2ccc(O)cc2)NC(=O)[C@H](NC(=O)[C@@H](N)Cc2ccc(Cl)cc2)CSSC[C@@H](C(=O)N[C@H](Cc2ccc(O)cc2)C(N)=O)NC1=O [Compound 11, H-Cpa-cyclo [DCys-Tyr- D-4-(2-(4- morpholinyl) ethyl)Aph- Lys-Thr-Cys]- DTyr-NH2] (H-[Phe(4-Cl)][dC]Y[X3]KTC[dY]-NH2; disulfide 2-7) |  |  | > 1000 | 243 |  |
| CCCCCNc1ccc(C[C@H]2NC(=O)[C@H](Cc3ccc(O)cc3)NC(=O)[C@H](NC(=O)[C@@H](N)Cc3ccc(Cl)cc3)CSSC[C@@H](C(=O)N[C@H](Cc3ccc(O)cc3)C(N)=O)NC(=O)[C@H]([C@@H](C)O)NC(=O)[C@H](CCCCN)NC2=O)cc1 [Compound 12, H-Cpa-cyclo[D-Cys-Tyr-D-Phe(4-n-pentylamino)-Lys-Thr-Cys]-D-Tyr-NH2] (H-[Phe(4-Cl)][dC]Y[X2]KTC[dY]-NH2; disulfide 2-7) | > 1000 | > 1000 | > 1000 | 17 | > 1000 |

Results, then the compound that gave them:

| IC50 (SSTR4) [nM] | IC50 (SSTR5) [nM] | IC50 (SSTR3) [nM] | IC50 [1] [nM] | IC50 (SSTR1) [nM] | Structure (SMILES) |
| --- | --- | --- | --- | --- | --- |
| > 1000 | > 1000 | > 1000 | 34 | > 1000 | C[C@@H](O)[C@@H]1NC(=O)[C@H](CCCCN)NC(=O)[C@@H](CCCNC(N)=O)NC(=O)[C@H](Cc2ccc(O)cc2)NC(=O)[C@H](NC(=O)[C@@H](N)Cc2ccc(Cl)cc2)CSSC[C@@H](C(=O)N[C@H](Cc2ccc(O)cc2)C(N)=O)NC1=O [Compound 1, H-Cpa-cyclo[D-Cys-Tyr-D-Cit-Lys-Thr-Cys]-D-Tyr-NH2] (H-[Phe(4-Cl)][dC]Y[dCit]KTC[dY]-NH2; disulfide 2-7) |
|  |  | > 1000 | 213 |  | C[C@@H](O)[C@@H]1NC(=O)[C@H](CCCCN)NC(=O)[C@@H](Cc2ccc(CN)cc2)NC(=O)[C@H](Cc2ccc(O)cc2)NC(=O)[C@H](NC(=O)[C@@H](N)Cc2ccc(Cl)cc2)CSSC[C@@H](C(=O)N[C@H](Cc2ccc(O)cc2)C(N)=O)NC1=O [Compound 5, H-Cpa-cyclo[DCys- Tyr-D-(4-aminomethyl)Phe- Lys-Thr-Cys]- DTyr-NH2] (H-[Phe(4-Cl)][dC]Y[dPhe(4-CH2NH2)]KTC[dY]-NH2; disulfide 2-7) |
|  |  | > 1000 | > 1000 |  | C[C@@H](O)[C@@H]1NC(=O)[C@H](CCCCN)NC(=O)[C@@H](Cc2ccc(NC(=O)[C@@H](N)CC(N)=O)cc2)NC(=O)[C@H](Cc2ccc(O)cc2)NC(=O)[C@H](NC(=O)[C@@H](N)Cc2ccc(Cl)cc2)CSSC[C@@H](C(=O)N[C@H](Cc2ccc(O)cc2)C(N)=O)NC1=O [Compound 19, H-Cpa-cyclo[DCys- Tyr-D-4-(Asn) Aph-Lys-Thr- Cys]-DTyr-NH2] (H-[Phe(4-Cl)][dC]Y[dPhe(4-NH2)](Asn)KTC[dY]-NH2; disulfide 2-7) |
| > 1000 | > 1000 | > 1000 | 21 | > 1000 | C[C@@H](O)[C@@H]1NC(=O)[C@H](CCCCN)NC(=O)[C@@H](Cc2ccc(NS(=O)(=O)c3ccccc3)cc2)NC(=O)[C@H](Cc2ccc(O)cc2)NC(=O)[C@H](NC(=O)[C@@H](N)Cc2ccc(Cl)cc2)CSSC[C@@H](C(=O)N[C@H](Cc2ccc(O)cc2)C(N)=O)NC1=O [Compound 14, H-Cpa-cyclo[DCys- Tyr-D-4- (benzenesulfonyl) Aph-Lys-Thr- Cys]-DTyr-NH2] (H-[Phe(4-Cl)][dC]Y[X1]KTC[dY]-NH2; disulfide 2-7) |
